Where “and” joins values, the source holds several entries; their conditions need not be identical. Identical values can stand only once. Like-named read-outs stand apart in the source and are kept apart here.
Assay: Pharmacokinetic analyses in mouse
Format: in vivo
Settings: for AUC(0-t): read-out: AUC0-24h; for AUC(0-inf): read-out: AUC0-inf
Procedure: Compound concentrations in plasma aliquots were measured by quantitative HPLC-MS/MS using an internal standard. Calibration and quality control samples were prepared using blank plasma from untreated animals. Samples were precipitated with acetonitrile and injected into a HPLC system (Agilent 1200). Separation was performed by gradients of 5 mmol/L ammonium acetate pH 4.0 and acetonitrile with 0.1% formic acid on a 2.1 mm by 50 mm XBridge BEH C18 reversed-phase column with 2.5 µm particles (Waters). The HPLC was interfaced by ESI operated in positive ionisation mode to a triple quadrupole mass spectrometer (5000 or 6500+ Triple Quad System, SCIEX) operated in multiple reaction monitoring mode. Transitions were 532.4 to 432.8 m/z for BI01810284, 525.6 to 425.7 m/z for BI01802983 and 1021.6 to 624.2 m/z for BI01580883. Chromatograms were analyzed with Analyst (SCIEX) and pharmacokinetic parameters were calculated by non-compartmental analysis using BI-proprietary software.

[1] = 5 mg/kg i.v., individual animals
[2] = 30 mg/kg p.o., individual animals
[3] = NMRI, mouse, plasma, iv, 5 mg/kg, NMRI mice, i.v., 5 mg/kg, PK study
[4] = NMRI, mouse, plasma, po, 30 mg/kg, NMRI mice, p.o., 30 mg/kg, PK study
[5] = NMRI, mouse, plasma, po, 30 mg/kg, NMRI mice, p.o., 30 mg/kg, Xenograft study
[6] = NMRI, mouse, plasma, po, 100 mg/kg, NMRI mice, p.o., 100 mg/kg
[7] = mouse, 5 mg/kg i.v., NCA, individual animals, 5 mg/kg

With `Cc1ncsc1-c1ccc([C@H](CCCCCN2CCC(c3ccc4c(c3)n(C3CCCC3)c3nc(=O)c5c(Br)cccc5n43)CC2)NC(=O)[C@@H]2C[C@@H](O)CN2C(=O)[C@@H](NC(=O)C2(F)CC2)C(C)(C)C)cc1` [compound 11] the AUC [1] was 40.7 µM·h and 36.8 µM·h, the AUCinf [1] was 40.9 µM·h and 37 µM·h and the Concentration (5 mg/kg i.v., time 0.25 h, individual animals) was 8.05 µmol/L. It also gave a Concentration (5 mg/kg i.v., time 1 h, individual animals) of 5.35 µmol/L, a Concentration (5 mg/kg i.v., time 6 h, individual animals) of 0.807 µmol/L and a Concentration (5 mg/kg i.v., time 24 h, individual animals) of 0.0376 µmol/L. The F (30 mg/kg p.o. vs 5 mg/kg i.v., individual animals) was 4.09% and 2.11% and 6.74%, the AUC [2] was 8.84 µM·h and 4.54 µM·h and 14.6 µM·h and the AUCinf [2] was 8.88 µM·h and 4.57 µM·h and 14.6 µM·h. The MRT (NMRI, mouse, plasma, iv, 5 mg/kg, NMRI mice, PK study) was 2.9 h, the AUC(0-t) [3] was 36 µM·h and the AUC(0-inf) [3] was 36 µM·h. The clearance (NMRI, mouse, plasma, iv, 5 mg/kg, NMRI mice, i.v., 5 mg/kg, PK study, read-out: Clearance) was 2.2 mL/min/kg, the Vd (NMRI, mouse, plasma, iv, 5 mg/kg, NMRI mice, i.v., 5 mg/kg, PK study, read-out: Vss) was 0.38 L/kg and the MRT (NMRI, mouse, plasma, po, 30 mg/kg, NMRI mice, PK study) was 5 h. The MRT (NMRI, mouse, plasma, po, 30 mg/kg, NMRI mice, Xenograft study) was 5.6 h, the AUC(0-t) [4] was 9.3 µM·h and the AUC(0-inf) [4] was 9.4 µM·h. It also gave a bioavailability (NMRI, mouse, plasma, po, 30 mg/kg, NMRI mice, p.o., 30 mg/kg, PK study, read-out: Bioavailability) of 4.3%, an AUC(0-t) [5] of 21 µM·h and an AUC(0-inf) [5] of 21 µM·h. The MRT (NMRI, mouse, plasma, po, 100 mg/kg, NMRI mice) was 5.1 h, the AUC(0-t) [6] was 38 µM·h and the AUC(0-inf) [6] was 39 µM·h. For the same compound, the Plasma concentration (mouse, 5 mg/kg i.v., 0.25 h, individual animals, 5 mg/kg) was 9.71 µmol/L and 10.4 µmol/L, the Plasma concentration (mouse, 5 mg/kg i.v., 1 h, individual animals, 5 mg/kg) was 5.97 µmol/L and 6.93 µmol/L and the Plasma concentration (mouse, 5 mg/kg i.v., 6 h, individual animals, 5 mg/kg) was 1.49 µmol/L and 0.87 µmol/L. The Plasma concentration (mouse, 5 mg/kg i.v., 24 h, individual animals, 5 mg/kg) was 0.0421 µmol/L and 0.0415 µmol/L, the AUC [7] was 40.7 µM·h and 36.8 µM·h and the AUCinf [7] was 40.9 µM·h and 37 µM·h. The CL [7] was 1.94 mL/min/kg and 2.14 mL/min/kg, the Vss [7] was 0.386 L/kg and 0.334 L/kg and the Plasma concentration (mouse, 30 mg/kg p.o., 0.333 h, individual animals, 30 mg/kg) was 0.172 µmol/L and 0.0946 µmol/L and 0.199 µmol/L. For the same compound, the Plasma concentration (mouse, 30 mg/kg p.o., 1 h, individual animals, 30 mg/kg) was 0.438 µmol/L and 0.509 µmol/L, the Plasma concentration (mouse, 30 mg/kg p.o., 2 h, individual animals, 30 mg/kg) was 0.577 µmol/L and 1.02 µmol/L and the Plasma concentration (mouse, 30 mg/kg p.o., 6 h, individual animals, 30 mg/kg) was 0.565 µmol/L and 0.239 µmol/L and 1.04 µmol/L.
